Entries after “also recorded” stand apart in the source; their conditions may differ.
How the values were obtained:
[1] = target: T1, folate receptor (FR-α) on KB cells (Homo sapiens, UniProt P15328); experiment: Competition binding with [3H]-folic acid on KB cells
T1 construct: KB cells that overexpress FR-α were seeded in 24-well (100,000 cells/well) Falcon plates; host or cells: KB cells (human; described as a HeLa derivative)
Procedure: KB cells that overexpress FR-α were seeded in 24-well (100,000 cells/well) Falcon plates and allowed to form monolayers over a period of 24 h. […] After incubating for 1 hour at 37° C., cells were rinsed with PBS (2×0.5 mL) and 1M trichloroacetic acid (1×0.5 mL) to remove any unbound radioactive materials. After adding 1% sodium dodecylsulfate in PBS (0.5 mL), cells were transferred into individual scintillation vials containing Ecolume scintillation cocktail (3.0 mL) and counted in a liquid scintillation analyzer. The relative binding affinities were calculated using a plot of cell bound radioactivity versus the concentration of the test article using Graph Pad Prism 4.
(§1) KB cells that overexpress FR-α were seeded in 24-well (100,000 cells/well) Falcon plates (BD Biosciences, CA) and allowed to form monolayers over a period of 12 h. […] After incubating for 1 h at 37° C., cells were rinsed with PBS (3×0.5 mL, Gibco, NY) to remove any unbound radioactive materials. After adding 0.25 M sodium hydroxide (0.5 mL) and incubating for 12 h at 4° C., cells were transferred into individual scintillation vials containing Ecolite scintillation cocktail (3.0 mL, MP Biomedicals, OH) and counted in a liquid scintillation analyzer (Packard). The relative binding affinities were calculated using a plot of % cell bound radioactivity versus the log concentration of the test article using GraphPad Prism 4.
as §1, with “12 hours.” for “12 h.”, “1 hour” for “1 h”, “12 hours” for “12 h”

[2] = Chemical and optical properties of NIR dyes (Table 1); type: physicochemical
[3] = tested on: FR-positive SKOV3 orthotopic tumor; experiment: Imaging and biodistribution, SKOV3 ovarian orthotopic model; type: in vivo, mice; settings: 2 nmol, 2 h
Procedure: Ovarian cancer was developed through surgical implantation of ovarian cancer cell lines near the ovarian bursa of the mouse. Seven-week-old female athymic nude mice were given 1-5% isoflurane for anesthesia and subcutaneous injection of 5 mg/kg meloxicam preoperatively for analgesia. The mice were placed dorsal side up and washed above the right ovary (just lateral to the epaxial muscles and ˜1.15 cm caudal to the rib cage) with a chlorhexidine scrub to ensure a sterile area for incision. After an insertion was made using scalpel through the skin, the peritoneal lining was lifted to make a small incision using a scissor and widened using a forceps. The ovarian fat pad was carefully lifted out and placed on a wetted gauze pad adjacent to the incision. Ovarian cancer cells (50,000 cells in 5 μL) were injected between the bursa and the ovary using a 30 gage needle. After placing the ovarian fat pad back into the body cavity, the body wall was closed using 3-0 or 4-0 vicryl and the skin was closed using staples.
(§2) Following whole body imaging, animals were dissected and selected tissues (heart, lung, liver, spleen, kidneys, stomach, small intestine, large intestine, muscle, skin, and tumor) were analyzed for fluorescence activity using IVIS imager using same settings as in whole body imaging.

[4] = tested on: FR-positive MDA-MB 231 tumor xenografts; experiment: Imaging and biodistribution, MDA-MB 231 breast xenograft; type: in vivo, mice
Procedure: Seven-week-old female nu/nu mice were inoculated subcutaneously with KB (1.0×10^6/mouse in RPM11640 medium), IGROV (5.0×10^6/mouse in 50% high concentrated matrigel+RPM11640 medium), SKOV3 (5.0×10^6/mouse in RPM11640 medium), OVCAR3 (5.0×10^6/mouse in RPM11640 medium), MDA-MB231 (1.0×10^6/mouse in RPM11640 medium), M109 (1.0×10^6/mouse in RPM11640 medium) or A549 cells (2.0×10^6/mouse in RPM11640 medium) on the shoulder. Growth of the tumors was measured in perpendicular directions every 2 days using a caliper (body weights were monitored on the same schedule), and the volumes of the tumors were calculated as 0.5×L×W^2 (L=longest axis and W=axis perpendicular to L in millimeters). Once tumors reached approximately 300-400 mm3 in volume, animals (3-5 mice/group) were intravenously injected with the compound of interest in PBS (for dose escalation in KB tumor model: 0.3-90 nmol, for time dependent in KB tumor model: 2 or 10 nmol, and for general whole body imaging and biodistribution for all tumor models: 2 nmol, in 100 μL in PBS per mouse). For whole body imaging and biodistribution studies, animals were euthanized 2 hours after administration of the compound of interest by CO2 asphyxiation. For time dependent studies, animals were imaged under anesthesia using isoflurane. Whole body imaging (intact tumor) experiments was then performed using a Caliper IVIS Lumina II Imaging Station with Living Image 4.0 software (PerkinElmer Inc, MA).
as §2

[5] = tested on: breast cancer cells metastasized to lung; experiment: Imaging, MDA-MB 231 metastatic model; type: in vivo, mice; settings: 2 nmol, 2 h
Procedure: (§3) One million (1×106) of either L1210A or MDA-MB231 cancer cells per mouse (cancer cells/mouse) were administered via tail vein injection into the mice. Tumor growth was monitored every other day using a Caliper IVIS Lumina II Imaging Station with Living Image 4.0 software (PerkinElmer Inc.).

[6] = tested on: FR-positive L1210A tumors; experiment: Imaging and biodistribution, L1210A metastatic model (OTL38); type: in vivo, mice; settings: 2 nmol, 2 h
Procedure: as §3, §2

T1 sequence (P15328 25-234): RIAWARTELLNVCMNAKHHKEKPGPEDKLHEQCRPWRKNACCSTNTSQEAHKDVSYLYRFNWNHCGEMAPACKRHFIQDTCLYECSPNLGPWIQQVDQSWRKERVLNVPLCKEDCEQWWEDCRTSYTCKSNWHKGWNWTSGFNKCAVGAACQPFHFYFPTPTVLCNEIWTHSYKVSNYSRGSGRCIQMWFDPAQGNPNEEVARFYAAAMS

CC1(C)C(/C=C/C2=C(Oc3ccc(C[C@H](NC(=O)c4ccc(NCc5cnc6nc(N)[nH]c(=O)c6n5)cc4)C(=O)[O-])cc3)C(=C/C=C3\N(CCCCS(=O)(=O)[O-])c4ccc(S(=O)(=O)[O-])cc4C3(C)C)/CCC2)=[N+](CCCCS(=O)(=O)[O-])c2ccc(S(=O)(=O)[O-])cc21.[H+].[H+].[H+].[H+] [OTL-0038, Pte-Tyr-S0456]
affinity and specificity for folate receptor (words) ([1]; KB cells): compares well with the binding affinity of folic acid
competition with [3H]-folic acid ([1]; KB cells): competed well with [3H]-folic acid
affinity and specificity for folate receptor (words) ([1]; KB cells, listed as OTL38): binds to FR with high affinity and specificity
affinity and specificity for folate receptor (words) ([1]; KB cells, listed as Pte-Tyr-S0456): binds folate receptor with high affinity and specificity
Relative binding affinities ([1]; relative affinity of folic acid=1, <1 weaker): 0.71
E [2]: 272000 M⁻¹ cm⁻¹
Q (%) [2]: 15.6%
Stokes Shift (nm) [2]: 20 nm
λem (nm) [2]: 776 nm
λex (nm) [2]: 796 nm
accumulation (tissue biodistribution) [3]: accumulated mainly in the ovary with FR-positive SKOV3 orthotopic tumor
tumor-to-normal tissue ratios [3]: excellent tumor-to-normal tissue ratios
ex-vivo tissue biodistribution ([4]; 2 nmol, 2 h): highest fluorescence intensities were observed in FR-positive tumors and kidneys
tumor-to-normal tissue ratios ([4]; 2 nmol, 2 h): excellent tumor-to-normal tissue ratios
whole body imaging: accumulation ([4]; 2 nmol, 2 h, listed as OTL38): accumulated mainly in the FR-positive MDA-MB 231 tumor xenografts; also recorded: mainly accumulated in FR-positive MDA-MB 231 tumor xenografts and kidneys
accumulation in tumor and kidneys after blocking the FR ([4]; 100 fold excess of folic acid prior to 2 nmol, 2 h): inhibited by the administration of 100 fold excess of folic acid
specificity for FR (conclusion) ([4]; blocking with excess folic acid): highly specific for FR
accumulation [5]: mainly accumulated in the breast cancer cells metastasized to lung
tumor-to-normal tissue ratios [6]: excellent tumor-to-normal tissue ratios
whole body imaging: accumulation [6]: accumulated mainly in the FR-positive L1210A tumors metastasize to the liver, lung and spleen
